Measured values published in patent US20040005327A1, “Immune T-cell stimulation” (priority 2002, published 2004).
Where “and” joins values, the source holds several entries; their conditions need not be identical. Identical values can stand only once.

Test system: T-lymphocytes
Test: Blastogenesis of T-cells, 3H-thymidine incorporation
Assay type: cell-based
Settings: for 3H-thymidine incorporation/well / Stimulation Index: PHA 5 μg/ml
Procedure: Dilutions of PHA were prepared from 1:100 to 1:1000 and the dilutions were added to mycro-plate system lymphocyte cultures. Phytohemaglutinin, Pockeweed antigen and A Concanavalin were added to identified wells. After the culture period, T-lymphocytes proliferation was determined by radioactive tymidine uptake assay.
The present study compared the mitogenic effect of hyperimmune whole egg and a partially purified fraction of the hyperimmune egg (less then 3K fraction described in Example 2) against control medium alone. The hyperimmune whole egg was tested at varying concentrations that include 0.24, 0.98, 3.9, 15.6, 62.5 and 250 μg/ml. The purified less than 3K fraction from the hyperimmune egg was tested at 0.1, 0.2, 0.7, 2.0, 6.1, 18.4, 55.3 and 166.0 μg/ml concentrations. The Stimulating Index for hyperimmune whole egg, in accordance with the above concentrations, was 0.9, 0.8, 0.9, 0.9, 0.8, and 0.8 respectively, which corresponds, in the test conditions, to a cell population increase of 90, 80, 90, 90, 80 and 80% respectively. The Stimulating Index for the 3K purified fraction, in accordance with the above concentrations, was 1.1, 1.2, 1.5, 1.7, 1.4, 1.3, 1.0 and 1.2 respectively (see Table 2), which corresponds, in the test conditions, to a cell population increasing of 110, 120, 150, 170, 140, 130, 100 and 120% respectively.

[1] = single wells No. 1-6, first study
[2] = single wells No. 1-6, repeated study

Phytohemaglutinin [PHA] was tested, and the 3H-thymidine incorporation/well (AVE of 6 wells, first study) was 108028 cpm, the “Stimulation Index” value (AVE of 6 wells, first study) was 195.8 and the 3H-thymidine incorporation/well (AVE of 6 wells, repeated study) was 109901 cpm. For the same substance, the “Stimulation Index” value (AVE of 6 wells, repeated study) was 292.2, the 3H-thymidine incorporation/well [1] was 98898 cpm and 121212 cpm and 97149 cpm and 118218 cpm and 101241 cpm and 111452 cpm and the “Stimulation Index” value [1] was 179.2 and 219.7 and 176.0 and 214.2 and 183.5 and 202.0. For the same substance, the 3H-thymidine incorporation/well [2] was 110201 cpm and 121811 cpm and 97453 cpm and 112934 cpm and 102484 cpm and 114522 cpm, the “Stimulation Index” value [2] was 293.0 and 323.8 and 259.1 and 300.2 and 272.4 and 304.4 and the T-lymphocytes proliferation (PHA dilutions 1:100 to 1:1000, radioactive tymidine uptake) was “increased the proliferation of free mitogen lymphocytes intensively”.
